Marks after values point to notes of the source that are not given here.
Experiments:
[1] = % of dose in solution in the dose formulation (dose analysis pre- and post-centrifugation); assay type: physicochemical; details: aqueous dose formulation
From the text: All compounds were formulated in an aqueous vehicle, the majority (79%) containing 0.2% Tween 80 in either water or saline. Due to the diverse nature of the molecules investigated, formulations were a mix of solutions and suspensions ranging from <1 to 100% compound in solution. Compound solubility effects were investigated using a tool compound available in three micronised salt forms with varying solubilities. The free base (FB), hydroxynapthoate (HNA) and hydrochloride (HCl) forms were each administered to the IPRLu model at a dose equivalent to 15 μg free base.
Data generated with the IPRLu model on 17 marketed drugs (14 out of 17 designed for inhaled delivery) are shown in Table I. All the compounds display a moderate to high extent of total dose in the perfusate at 20 minutes (10–100%), in keeping with the in-house observation that compounds displaying < <10% carry a high risk of accumulation in the lung upon repeat dosing, which can lead to developability issues and high attrition rates. The marketed compound set can be classified into two groups according to their solubility. The first group are reasonably soluble in the dose formulation (>80% of the parent compound in solution, determined by dose analysis pre- and post-centrifugation) and display similar values for %SDiP and %TDiP. The second group are only partially soluble in the dose formulation (<80% of the parent compound in solution) and therefore display greater values for %SDiP compared to %TDiP.

[2] = isolated perfused respiring rat lung (IPRLu) model, intratracheal instillation; details: for recovery at 20 min / half-life: male, CD, rat, 100 μL, pH 7.4; for recovery at 20 min: isolated perfused respiring rat lung (IPRLu), lungs in situ; for %SDiP: solubilised dose in perfusate at 20 mins; for %TDiP: total dose in perfusate at 20 mins
Procedure: The IPRLu model, including surgery, dosing and sample collection, was performed by the Laboratory Animal Sciences department at GSK. Methodology was based on that described by Tronde et al. (23;24) but with lungs remaining in situ and intratracheal instillation as the dosing technique. Prior to surgery male CD rats were anaesthetised with intraperitoneal ketamine and medetomidine (Dormitor^TM) at […] and 0.5 ml/kg respectively. In addition, 50U of heparin was administered intravenously via a tail vein. Following confirmation of anaesthesia, the front of the rib cage was removed to access heart and lungs, and the trachea cannulated and secured with a ligature. Respiration was transferred to a positive pressure small animal ventilator (Harvard Apparatus Ltd, Edenbridge, Kent, UK) and maintained at 40 breaths per minute with a tidal volume of 1.8 ml. Following exsanguination, the pulmonary artery and vein were cannulated through incisions in the right and left ventricles in order to isolate the blood pulmonary circulatory system. The rat was then raised and maintained at an angle of 45° using a custom made elevating chamber similar to that described by Brain et al. ([26]). […] After an initial first pass to flush blood from the lung vasculature, the perfusion buffer was then recirculated for approximately 10 minutes to equilibrate and attain the required flow rate. Lungs were visually inspected for leaks and signs of oedema ([27]). Compounds were administered either discretely or co-formulated (2–4 compounds) and experiments were carried out in duplicate. Doses (100 μL) were administered to the trachea slightly above the bifurcation point by introduction of a 50 mm needle Hamilton syringe into the tracheal cannula followed by 3 x 1 ml of air. The tracheal cannula was then reattached to the ventilator and total perfusate was collected over 1 min intervals for 20 mins. Perfusate aliquots (1 ml) were frozen (-20°C) along with terminal lung samples prior to analysis.
Homogenised lung and perfusate samples underwent protein precipitation by addition of a 3-fold excess of acetonitrile containing an internal standard. Following either filtration or centrifugation the resulting filtrate or supernatant was typically dried down under a nitrogen stream and then reconstituted in the mobile phase used for separation by HPLC. Following sample preparation lung and perfusate samples, along with residual dose formulations (pre- and post-centrifugation) were analysed by HPLC tandem mass spectrometry (LC-MS/MS), typically using a generic reverse phase chromatography gradient method with separation on a C18 column (50 x 2.1 mm, 3 μm) and an acidified mobile phase.
The cumulative amount of parent compound crossing the lung into the perfusate by the end of the 20 minute experiment was expressed as % of the total dose or as % of the dose originally in solution (solubilised dose). The relative rate of absorption across the lungs was also calculated, the percentage of the administered dose remaining in the lungs was plotted semilogarithimically against time and the initial rate of absorption expressed as a half-life.

[3] = other: intratracheal instillation
[4] = mean (n = 2), range in brackets
[5] = solubility in dose vehicle determined post study on a discrete weighing of the compound

SMILES	% Dose in solution [1] [%]	recovery at 20 min [2, 3] [%]	half-life [2, 3] [min]	%SDiP [2, 4]	%TDiP [2, 4]	also measured
Nc1c(Br)cc(Br)cc1CN[C@H]1CC[C@H](O)CC1 [Ambroxol]	95	70	39	–	–	–
N=C(N)NC(=O)c1nc(Cl)c(N)nc1N [Amiloride]	100	81	8	–	–	–
CCCC1O[C@@H]2C[C@H]3[C@@H]4CCC5=CC(=O)C=C[C@]5(C)[C@H]4[C@@H](O)C[C@]3(C)[C@]2(C(=O)CO)O1 (stereo partly shown) [Budesonide]	14	84	3.3	551 (540–561) %	77 (76–79) %	%SDiP ([2]; mean (n = 2), range in brackets, listed as budesonide): > 100%
CC1(C)O[C@@H]2C[C@H]3[C@@H]4C[C@H](F)C5=CC(=O)C=C[C@]5(C)[C@H]4[C@@H](O)C[C@]3(C)[C@]2(C(=O)CO)O1 [Flunisolide]	42	139	15	96 (66–126) %	41 (28–53) %	%SDiP ([2]; mean (n = 2), range in brackets, listed as flunisolide): 100%
C[C@@H]1C[C@H]2[C@@H]3C[C@H](F)C4=CC(=O)C=C[C@]4(C)[C@@]3(F)[C@@H](O)C[C@]2(C)[C@@]1(OC(=O)c1ccco1)C(=O)SCF [Fluticasone Furoate]	3.2	–	153	–	10 (7–12) %	%SDiP [2, 5]: 300^c %; %SDiP ([2]; solubility in dose vehicle determined post study on a discrete weighing of the compound, listed as fluticasone furoate): > 100%
CCC(=O)O[C@]1(C(=O)SCF)[C@H](C)C[C@H]2[C@@H]3C[C@H](F)C4=CC(=O)C=C[C@]4(C)[C@@]3(F)[C@@H](O)C[C@@]21C [Fluticasone Propionate]	0.5	–	115	–	10 (10) %	%SDiP [2, 5]: 2000^c %; %SDiP ([2]; solubility in dose vehicle determined post study on a discrete weighing of the compound, listed as fluticasone propionate): > 100%
COc1ccc(C[C@@H](C)NC[C@H](O)c2ccc(O)c(NC=O)c2)cc1.COc1ccc(C[C@@H](C)NC[C@H](O)c2ccc(O)c(NC=O)c2)cc1.O=C(O)/C=C/C(=O)O [Formoterol Fumerate]	100	–	–	47 (42–52) %	47 (42–52) %	Lung T1/2 (mins) ([2]; lung absorption half-life, mean (n = 2), range in brackets): 24 (22–26) mins; Recovery of total dose (%) ([2]; only where lung analysis was carried out, mean (n = 2), range in brackets): 73 (70–76) %
CCc1cc2c(cc1CC)CC(NC[C@H](O)c1ccc(O)c3[nH]c(=O)ccc13)C2 [Indacaterol]	88	91	273	12 (12) %	11 (10,11) %	%SDiP ([2]; mean (n = 2), range in brackets, listed as indacaterol): 12%
CC(C)[N+]1(C)[C@@H]2CC[C@H]1C[C@@H](OC(=O)C(CO)c1ccccc1)C2 (stereo partly shown) [Ipratropium Bromide]	100	–	–	–	–	–
CCN(CC)CC(=O)Nc1c(C)cccc1C [Lidocaine]	100	–	–	–	75 (64–82) %	%SDiP [2, 5]: 75^c %

The next lines start with results.

% Dose in solution [1] [%]	recovery at 20 min [2, 3] [%]	half-life [2, 3] [min]	%SDiP [2, 4]	%TDiP [2, 4]	SMILES	also measured
73	77	42	–	67 (57–78) %	CC(C)(O)c1ccccc1CC[C@@H](SCC1(CC(=O)O)CC1)c1cccc(/C=C/c2ccc3ccc(Cl)cc3n2)c1 [Montelukast]	–
24	85	32	125 (83–166) %	32 (23–40) %	CCCc1c2oc(C(=O)O)cc(=O)c2cc2c(=O)cc(C(=O)O)n(CC)c12 [Nedocromil]	%SDiP ([2]; mean (n = 2), range in brackets, listed as nedocromil): > 100%
55	78	–	–	–	CC(C)(C)NCC(O)c1ccc(O)c(CO)c1 (stereo not shown) [Salbutamol]	–
36	69	146	41 (16–66) %	15 (6–24) %	OCc1cc(C(O)CNCCCCCCOCCCCc2ccccc2)ccc1O (stereo not shown) [Salmeterol]	–
21	–	28	178 (176–180) %	38 (38) %	C=CC[C@@H]1/C=C(\C)C[C@H](C)C[C@H](OC)[C@H]2O[C@@](O)(C(=O)C(=O)N3CCCC[C@H]3C(=O)O[C@H](/C(C)=C/[C@@H]3CC[C@@H](O)[C@H](OC)C3)[C@H](C)[C@@H](O)CC1=O)[C@H](C)C[C@@H]2OC [Tacrolimus (prograf), Tacrolimus]	%SDiP ([2]; mean (n = 2), range in brackets, listed as tacrolimus): > 100%
–	–	–	–	61 (59–62) %	C[N+]1(C)[C@@H]2C[C@@H](OC(=O)C(O)(c3cccs3)c3cccs3)C[C@H]1[C@@H]1O[C@@H]12 [Tiotropium Bromide]	half-life [2]: 16 min
–	104	7	–	100 (100–100) %	CC(=O)N[C@H]1[C@H]([C@H](O)[C@H](O)CO)OC(C(=O)O)=C[C@@H]1N=C(N)N [Zanamivir]	–
